Results as given in ChEMBL document CHEMBL1137135 (Bioorg Med Chem Lett, 2004).

Legend:
Rattus norvegicus = species on record: Rattus norvegicus; test: In vitro anticoagulant activity of compound was determined in rat; type: functional
[1] = In vitro inhibitory activity against Factor Xa
[2] = Binding affinity of compound towards Factor Xa
[3] = Bioavailability in rat; type: ADME, organism-based; conditions: in vivo
[4] = Half-life of compound was determined in rat; type: ADME; conditions: in vivo
[5] = Plasma clearance of compound was determined in rat; type: ADME, organism-based
[6] = Vz of compound was determined in rat; type: ADME, organism-based; conditions: in vivo, read-out: Vz

Row | Structure (SMILES) | 2X PT (Rattus norvegicus) | TG 2X lag (Rattus norvegicus) | IC50 [1] | Ki [2] | bioavailability [3] | half-life [4] | clearance [5] | Vd [6]
1 | NS(=O)(=O)c1ccccc1-c1ccc(C(=O)NC(CC(=O)Nc2ccc(Br)cn2)C(=O)N2CCCCC2)cc1 (stereo unspecified) | 7 µM | 4.6 µM | 7.6 nM | 1.36 nM | 2.7% | 1.35 h | 50.6 mL/min/kg | 5.9 L/kg
2 | CN(C)Cc1ccccc1-c1ccc(C(=O)N[C@@H](CC(=O)Nc2ccc(Cl)cn2)C(=O)N2CCCCC2)cc1 | 3.6 µM | 0.96 µM | 2.9 nM | 1 nM | 7.9% | 6.1 h | 124 mL/min/kg | 59.2 L/kg
